Experimental data as given in patent publication US7576094B2, “Spiro derivatives as lipoxygenase inhibitors” (Eli Lilly and Company, priority 2004, dated 2009).

Target: T1, human recombinant 5-Lipoxygenase (Homo sapiens, UniProt P09917)
T1 sequence (P09917 1-674): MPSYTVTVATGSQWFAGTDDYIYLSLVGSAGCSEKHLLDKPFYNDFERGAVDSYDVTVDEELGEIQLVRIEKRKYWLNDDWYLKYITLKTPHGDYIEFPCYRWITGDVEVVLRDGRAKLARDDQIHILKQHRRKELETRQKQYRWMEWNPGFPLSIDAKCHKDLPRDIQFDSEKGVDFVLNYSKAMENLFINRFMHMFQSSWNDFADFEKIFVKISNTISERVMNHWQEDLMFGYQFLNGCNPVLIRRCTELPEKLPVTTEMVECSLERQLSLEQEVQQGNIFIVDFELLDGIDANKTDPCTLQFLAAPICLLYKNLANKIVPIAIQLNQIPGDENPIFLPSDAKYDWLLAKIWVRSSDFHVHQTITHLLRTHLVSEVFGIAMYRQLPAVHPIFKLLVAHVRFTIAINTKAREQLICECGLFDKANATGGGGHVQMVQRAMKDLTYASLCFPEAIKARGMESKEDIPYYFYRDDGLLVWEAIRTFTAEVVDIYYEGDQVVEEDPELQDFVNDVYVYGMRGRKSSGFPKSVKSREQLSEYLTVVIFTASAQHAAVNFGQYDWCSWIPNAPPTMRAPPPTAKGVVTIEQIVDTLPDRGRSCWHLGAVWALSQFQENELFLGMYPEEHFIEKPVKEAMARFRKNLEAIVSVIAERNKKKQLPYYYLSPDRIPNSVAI
Test: 5-Lipoxygenase Enzyme Assay
Type: biochemical
Settings: 70 μM arachidonic acid, 10 minute incubation at room temperature, FOX reagent, absorbance at 620 nm; read-out: inhibition of 5-Lipoxygenase with an IC50
Source text: This procedure was used for measuring the enzymatic activity of human recombinant 5-Lipoxygenase using a colorimetric method based on the ferric oxidation of xylenol orange.
• 96 well flat bottom microfilter plates (VWR, Catalog # 62402-933 9295) • Lipoxygenase screening assay buffer (Cayman, Catalog # 760710) • Human recombinant 5-Lipoxygenase (Cayman, Catalog # 60402) • Arachidonic Acid (Sigma, Catalog # A3555) • Xylenol orange tetra sodium salt (Aldrich, Catalog # 227854) • Iron (II) sulfate heptahydrate (Sigma, Catalog # F7002) • Sulfuric acid (95-98%) [18 M] • Methanol Procedure
Human recombinant 5-Lipoxygenase (Cayman Cat # 60402) was used in this assay. The test compound and/or vehicle was added to 0.5 μL 5-Lipoxygenase in 50 mM Tris-HCl buffer, pH 7.4. The reaction was initiated by addition of 70 μM arachidonic acid in Tris-HCl buffer, pH 7.4, and terminated after a 10 minute incubation at room temperature by addition of FOX reagent (25 mM sulfuric acid, 100 μM xylenol orange, 100 μM iron (II) sulfate, methanol:water 9:1). The yellow color of acidified xylenol orange was converted to a blue color by the lipid hydroperoxide-mediated oxidation of Fe^2+ ions and the interaction of the resulting Fe^3+ ions with the dye. The complex was allowed to form during a 1 hour incubation at room temperature with shaking. Absorbance of the Fe^3+ complex was then measured at […] using a spectrophotometer.
Negative controls contained enzyme during the incubation step but substrate was not added until after the FOX reagent. Compounds were screened at 5 concentrations in triplicate starting at 10 μM

SMILES	IC50
Cc1cc2c(c(C)c1O)CCC1(CCC1)N2Cc1ccc(Cl)cc1 [1′-(4-chlorobenzyl)-5′,7′-dimethyl-3′,4′-dihydro-1′H-spiro[cyclobutane-1,2′-quinolin]-6′-ol]	< 300 nM
Cc1c(C)c2c(c(C)c1O)C(O)C1(CCC1)CN2c1ccc(Cl)cc1 (stereo not drawn) [1′-(4-chlorophenyl)-5′,7′,8′-trimethyl-2′,4′-dihydro-1′H-spiro[cyclobutane-1,3′-quinoline]-4′,6′-diol]	< 300 nM
Cc1c(O)cc2c(c1C)N(c1ccc(O)cc1)CC1(CCC1)C2 [1′-(4-hydroxyphenyl)-7′,8′-dimethyl-2′,4′-dihydro-1′H-spiro[cyclobutane-1,3′-quinolin]-6′-ol]	< 300 nM
Cc1c(C)c2c(c(C)c1O)C(CN)=CC1(CCC1)O2 [4-(aminomethyl)-5,7,8-trimethylspiro[chromene-2,1′-cyclobutan]-6-ol]	< 300 nM
CCONC1CC2(CCC2)Oc2cc(CC)c(O)c(CC)c21 (stereo not drawn) [4-(ethoxyamino)-5,7-diethyl-3,4-dihydrospiro[chromene-2,1′-cyclobutan]-6-ol]	< 300 nM
CCONC1CC2(CCC2)Oc2c(C)c(C)c(O)c(CC)c21 (stereo not drawn) [4-(ethoxyamino)-5-ethyl-7,8-dimethyl-3,4-dihydrospiro[chromene-2,1′-cyclobutan]-6-ol]	< 300 nM
CONC1CC2(CCC2)Oc2c(C)c(C)c(O)c(C)c21 (stereo not drawn) [4-(methoxyamino)-5,7,8-trimethyl-3,4-dihydrospiro[chromene-2,1′-cyclobutan]-6-ol]	< 300 nM
CON(C)C1CC2(CCC2)Oc2cc(C)c(O)c(C)c21 (stereo not drawn) [4-[methoxy(methyl)amino]-5,7-dimethyl-3,4-dihydrospiro[chromene-2,1′-cyclobutan]-6-ol]	< 300 nM
Cc1cc2c(c(C)c1O)C(OC(C)C)CC1(CCC1)O2 (stereo not drawn) [4-isopropoxy-5,7-dimethyl-3,4-dihydrospiro[chromene-2,1′-cyclobutan]-6-ol]	< 300 nM
Cc1c(C)c2c(c(C)c1OC(=O)n1ccnc1)CCC1(CCC1)O2 [5,7,8-trimethyl-3,4-dihydrospiro[chromene-2,1′-cyclobutan]-6-yl 1H-imidazole-1-carboxylate]	< 300 nM
Cc1c(C)c2c(c(C)c1OC(=O)CN(C)C)CCC1(CCC1)O2 [5,7,8-trimethyl-3,4-dihydrospiro[chromene-2,1′-cyclobutan]-6-yl (dimethylamino)acetate]	< 300 nM
CCc1cc2c(c(CC)c1O)C(O)C1(CCC1)CO2 (stereo not drawn) [5,7-diethylspiro[chroman-3,1′-cyclobutane]-4,6-diol]	< 300 nM
CONCc1c2c(c(C(C)C)c(O)c1C(C)C)CCC1(CCC1)O2 [5,7-diisopropyl-8-[(methoxyamino)methyl] 3,4-dihydrospiro[chromene-2,1′-cyclobutan]-6-ol]	< 300 nM
CCc1c(O)c(C)c(C)c2c1C(NOC)CC1(CCC1)O2 (stereo not drawn) [5-ethyl-4-(methoxyamino)-7,8-dimethyl-3,4-dihydrospiro[chromene-2,1′-cyclobutan]-6-ol]	< 300 nM
Cc1c(C)c2c(c(C)c1OC(=O)CN(C)C)CCC1(CCC1)S2 [5′,7′,8′-trimethyl-3′,4′-dihydrospiro[cyclobutane-1,2′-thiochromen]-6′-yl (dimethylamino)acetate]	< 300 nM
CC(C)c1c(O)c(C(C)C)c2c(c1C=O)OC1(CCC1)CC2 [6-hydroxy-5,7-diisopropyl-3,4-dihydrospiro[chromene-2,1′-cyclobutane]-8-carbaldehyde]	< 300 nM
CO/N=C1\CC2(CCC2)Oc2cc(C)c(O)c(C)c21 [6-hydroxy-5,7-dimethylspiro[chromene-2,1′-cyclobutan]-4(3H)-one O-methyloxime]	< 300 nM
Cc1c2c(c(C)c(Cl)c1OC(=O)c1cccnc1)OC1(CCC1)CC2 [7-chloro-5,8-dimethyl-3,4-dihydrospiro[chromene-2,1′-cyclobutan]-6-yl nicotinate]	< 300 nM
Cc1c(O)cc2c(c1C)N(c1ccc(S(C)(=O)=O)cc1)CC1(CCC1)C2 [7′,8′-dimethyl-1′-(4-(methylsulfonyl)phenyl)-2′,4′-dihydro-1′H-spiro[cyclobutane-1,3′-quinolin]-6′-ol]	< 300 nM
Cc1c(O)cc2c(c1C)N(c1ccc(N3CCNCC3)nc1)CC1(CCC1)C2 [7′,8′-dimethyl-1′-(6-(piperazin-1-yl)pyridin-3-yl)-2′,4′-dihydro-1′H-spiro[cyclobutane-1,3′-quinolin]-6′-ol]	< 300 nM
COCc1c(C)c(O)c(C)c2c1OC1(CCC1)CC2 [8-(methoxymethyl)-5,7-dimethyl-3,4-dihydrospiro[chromene-2,1′-cyclobutan]-6-ol]	< 300 nM
Cc1c(O)cc(C(C)C)c2c1CCC1(CCC1)O2 [8-isopropyl-5-methyl-3,4-dihydrospiro[chromene-2,1′-cyclobutan]-6-ol]	< 300 nM
CCO/N=C1\CC2(CCC2)Oc2cc(C)c(O)c(C)c21 [(4E)-6-hydroxy-5,7-dimethylspiro[chromene-2,1′-cyclobutan]-4(3H)-one O-ethyloxime]	< 300 nM
CCO/N=C1/CC2(CCC2)Oc2cc(C)c(O)c(C)c21 [(4Z)-6-hydroxy-5,7-dimethylspiro[chromene-2,1′-cyclobutan]-4(3H)-one O-ethyloxime]	< 300 nM
CCCc1ccc([S+](=O)([O-])NCCN2CC3(CCC3)Cc3cc(O)c(C)c(C)c32)cc1 [N-(2-(6′-hydroxy-7′,8′-dimethyl-2′,4′-dihydro-1′H-spiro[cyclobutane-1,3′-quinoline]-1′-yl)ethyl)-4-propylbenzenesulfonamide]	< 300 nM
CC(=O)NC1CC2(CCC2)Oc2c(C)c(C)c(O)c(C)c21 (stereo not drawn) [N-(6-hydroxy-5,7,8-trimethyl-3,4-dihydrospiro[chromene-2,1′-cyclobutan]-4-yl)acetamide]	< 300 nM
CCCC(=O)NC1CC2(CCC2)Oc2c(C)c(C)c(O)c(C)c21 (stereo not drawn) [N-(6-hydroxy-5,7,8-trimethyl-3,4-dihydrospiro[chromene-2,1′-cyclobutan]-4-yl)butanamide]	< 300 nM
COC(=O)CN1CC2(CC2)Cc2cc(O)c(C)c(C)c21 [methyl 2-(6′-hydroxy-7′,8′-dimethyl-2′,4′-dihydro-1′H-spiro[cyclopropane-1,3′-quinoline]-1′-yl)acetate]	< 300 nM
COC(=O)c1ccc(N2CC3(CCC3)Cc3cc(O)c(C)c(C)c32)cc1 [methyl 4-(6′-hydroxy-7′,8′-dimethyl-2′,4′-dihydro-1′H-spiro[cyclobutane-1,3′-quinoline]-1′-yl)benzoate]	< 300 nM
COC(=O)c1ccc(CN2c3cc(C)c(O)c(C)c3CCC23CCC3)cc1 [methyl 4-((6′-hydroxy-5′,7′-dimethyl-3′,4′-dihydro-1′H-spiro[cyclobutane-1,2′-quinoline]-1′-yl)methyl)benzoate]	< 300 nM
